Starred links: 1 amine or outer side, 2 acyl side, 3 side chain; linkers in the order of their positions; H or OH if unused. Positions of bridges follow the written chain, without caps; N, C: chain ends. Non-standard residues stand in square brackets, D forms with d. Residues, ends and D or L forms follow the SMILES beside them. hCys = N[C@@H](CCS)C(=O)O; Dab = NCC[C@H](N)C(=O)O; Dap = NC[C@H](N)C(=O)O; X1 = O=C(C[*:2])[*:1]; X2 = O=C(C[*:1])[*:2]
Assays:
[1] = target: human integrin αvβ5 (Homo sapiens, UniProt P06756+P18084); assay: Evaluation of integrin binding property (surface plasmon resonance, Biacore 3000, immobilized cyclic peptide); details: surface plasmon resonance, immobilized cyclic peptide, human integrin αvβ5; read-out: Binding activity (integrin binding property, dissociation constant rank)
Method in brief: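 Human αvβ5 (30-1,000 nM) flowed for 10 min at 25 °C over immobilized cyclic peptide in 20 mM HEPES, 150 mM NaCl, 5 mM MgCl2, pH 7.4, followed by 30 min running buffer and 0.5 M EDTA regeneration. Dissociation constant from peptide minus unimmobilized channel, scored into standard grades.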

[2] = Evaluation of molecule stability (alkali treatment, residual rate by LC/MS); type: physicochemical; details: for Stability (molecule stability, residual rate of the cyclic peptide rank): alkali treatment, residual rate by LC/MS; for molecule stability (in words): summary of Table 9 to Table 13
Method in brief: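 Stability read as percent of summed LC/MS peak area remaining versus untreated peptide (C18, 45 °C, 10 mM ammonium formate pH 3, ESI positive/negative). Treatment: 500 μM peptide in water plus an equivalent of 1 M NaOH, 15 °C for 3 hours.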

human integrin αvβ5, sequence (P06756 31-1048): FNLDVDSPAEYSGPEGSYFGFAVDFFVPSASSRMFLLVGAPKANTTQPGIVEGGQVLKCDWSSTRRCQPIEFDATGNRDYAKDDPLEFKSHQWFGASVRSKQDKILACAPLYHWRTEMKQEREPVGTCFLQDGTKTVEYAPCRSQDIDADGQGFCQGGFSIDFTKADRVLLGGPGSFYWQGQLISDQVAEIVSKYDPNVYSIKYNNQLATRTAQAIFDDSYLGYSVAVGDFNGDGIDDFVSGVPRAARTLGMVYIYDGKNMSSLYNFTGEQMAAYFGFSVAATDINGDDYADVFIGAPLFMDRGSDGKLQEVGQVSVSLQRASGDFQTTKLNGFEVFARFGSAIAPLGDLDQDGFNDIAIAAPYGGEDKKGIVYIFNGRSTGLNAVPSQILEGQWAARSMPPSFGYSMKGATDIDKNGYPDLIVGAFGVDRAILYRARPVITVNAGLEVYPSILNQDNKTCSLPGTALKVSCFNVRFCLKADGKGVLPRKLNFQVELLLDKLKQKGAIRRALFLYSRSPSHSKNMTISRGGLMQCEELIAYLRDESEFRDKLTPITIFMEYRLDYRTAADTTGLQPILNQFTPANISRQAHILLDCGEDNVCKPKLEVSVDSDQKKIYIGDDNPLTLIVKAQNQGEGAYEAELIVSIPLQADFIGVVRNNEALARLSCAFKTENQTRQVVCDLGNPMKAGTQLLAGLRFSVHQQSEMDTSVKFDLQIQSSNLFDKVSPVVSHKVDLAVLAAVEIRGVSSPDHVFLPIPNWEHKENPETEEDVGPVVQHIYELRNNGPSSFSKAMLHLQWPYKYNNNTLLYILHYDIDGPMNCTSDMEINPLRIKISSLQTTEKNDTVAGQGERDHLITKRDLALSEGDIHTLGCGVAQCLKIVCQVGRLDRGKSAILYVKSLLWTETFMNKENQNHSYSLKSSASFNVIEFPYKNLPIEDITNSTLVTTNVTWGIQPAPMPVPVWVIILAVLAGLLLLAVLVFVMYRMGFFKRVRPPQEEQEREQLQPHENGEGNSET
human integrin αvβ5, sequence (P18084 24-799): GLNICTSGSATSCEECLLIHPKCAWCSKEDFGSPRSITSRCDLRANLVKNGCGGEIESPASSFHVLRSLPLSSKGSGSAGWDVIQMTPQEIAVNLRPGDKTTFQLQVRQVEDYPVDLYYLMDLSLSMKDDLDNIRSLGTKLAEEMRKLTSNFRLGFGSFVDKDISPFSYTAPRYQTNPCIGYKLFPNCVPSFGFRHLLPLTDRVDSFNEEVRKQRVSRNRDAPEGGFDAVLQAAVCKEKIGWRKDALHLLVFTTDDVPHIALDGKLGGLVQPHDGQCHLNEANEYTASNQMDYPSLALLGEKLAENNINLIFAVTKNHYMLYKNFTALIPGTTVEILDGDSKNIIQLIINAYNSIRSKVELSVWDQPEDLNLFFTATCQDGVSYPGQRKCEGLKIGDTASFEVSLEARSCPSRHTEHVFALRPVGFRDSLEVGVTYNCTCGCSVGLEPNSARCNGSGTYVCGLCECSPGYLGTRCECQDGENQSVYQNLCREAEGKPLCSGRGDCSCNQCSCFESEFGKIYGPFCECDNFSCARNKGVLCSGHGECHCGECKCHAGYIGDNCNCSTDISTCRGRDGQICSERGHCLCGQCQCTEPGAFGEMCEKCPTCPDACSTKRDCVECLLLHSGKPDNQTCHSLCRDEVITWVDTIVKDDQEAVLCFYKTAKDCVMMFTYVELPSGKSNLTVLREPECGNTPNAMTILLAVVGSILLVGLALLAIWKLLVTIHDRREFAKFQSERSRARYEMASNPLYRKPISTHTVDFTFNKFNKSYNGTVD

Compound | Kd [1] [µM] | Stability (molecule stability, residual rate of the cyclic peptide rank) [2] | molecule stability (in words) [2]
C[C@H](NC(=O)[C@@H]1CCNC(=O)CSCC[C@H](NC(=O)[C@H](C)NC(=O)[C@H](CCCCN)NC(=O)[C@H](CCCCN)NC(=O)[C@@H](N)CCCCN)C(=O)N[C@@H]([C@@H](C)O)C(=O)N[C@@H]([C@@H](C)O)C(=O)N[C@@H](CCCNC(=N)N)C(=O)NCC(=O)N[C@@H](CC(=O)O)C(=O)N[C@@H](CO)C(=O)N[C@@H](Cc2ccccc2)C(=O)N[C@@H](C)C(=O)N1)C(=O)O [Cyclic peptide 161, KKKA-(Hcy)-TTRGDSFA(Dab(acetyl))A] (H-KKKA[hCys]TTRGDSFA[Dab]A-OH; linker 5-14 via X2) | 0.05 to 0.1 | A (The residual rate of the cyclic peptide is 70% or more.) | 
CC[C@H](C)[C@@H]1NC(=O)[C@@H](NC(=O)[C@H](CCCCN)NC(=O)[C@H](CCCCN)NC(=O)[C@@H](N)CCCCN)CCSCC(=O)NCC[C@@H](C(=O)N[C@@H](C)C(=O)O)NC(=O)[C@H](C)NC(=O)[C@H](Cc2ccccc2)NC(=O)[C@H](CO)NC(=O)[C@H](CC(=O)O)NC(=O)CNC(=O)[C@H](CCCNC(=N)N)NC(=O)[C@@H]2CCCN2C1=O [Cyclic peptide 163, KKK-(Hcy)-IPRGDSFA(Dab(acetyl))A] (H-KKK[hCys]IPRGDSFA[Dab]A-OH; linker 4-13 via X2) | < 0.05 | A (The residual rate of the cyclic peptide is 70% or more.) | 
CC(C)[C@@H]1NC(=O)[C@@H](NC(=O)[C@H](C)NC(=O)[C@H](CCCCN)NC(=O)[C@H](CCCCN)NC(=O)[C@@H](N)CCCCN)CCSCC(=O)NCC[C@@H](C(=O)O)NC(=O)[C@H](C)NC(=O)[C@H](Cc2ccccc2)NC(=O)[C@H]([C@@H](C)O)NC(=O)[C@H](CC(=O)O)NC(=O)CNC(=O)[C@H](CCCNC(=N)N)NC(=O)[C@@H]2CCCN2C1=O [Cyclic peptide 164, KKKA-(Hcy)-VPRGDTFA(Dab(acetyl))] (H-KKKA[hCys]VPRGDTFA[Dab]-OH; linker 5-14 via X2) | < 0.05 | A (The residual rate of the cyclic peptide is 70% or more.) | 
CC(C)[C@@H]1NC(=O)[C@@H](NC(=O)[C@H](CCCCN)NC(=O)[C@H](CCCCN)NC(=O)[C@@H](N)CCCCN)CCSCC(=O)NCC[C@@H](C(=O)N[C@@H](C)C(=O)O)NC(=O)[C@H](C)NC(=O)[C@H](Cc2ccccc2)NC(=O)[C@H]([C@@H](C)O)NC(=O)[C@H](CC(=O)O)NC(=O)CNC(=O)[C@H](CCCNC(=N)N)NC(=O)[C@@H]2CCCN2C1=O [Cyclic peptide 165, KKK-(Hcy)-VPRGDTFA(Dab(acetyl))A] (H-KKK[hCys]VPRGDTFA[Dab]A-OH; linker 4-13 via X2) | < 0.05 | A (The residual rate of the cyclic peptide is 70% or more.) | 
C[C@H](NC(=O)[C@H](CCCCN)NC(=O)[C@H](CCCCN)NC(=O)[C@@H](N)CCCCN)C(=O)N[C@H]1CNC(=O)CSC[C@@H](C(=O)O)NC(=O)[C@H](CCCNC(=N)N)NC(=O)[C@H](Cc2ccc(O)cc2)NC(=O)[C@H](CC(N)=O)NC(=O)[C@H](CC(=O)O)NC(=O)CNC(=O)[C@H](CCCNC(=N)N)NC(=O)[C@@H]2CCCN2C(=O)[C@H](CCC(=O)O)NC1=O [Cyclic peptide 166, KKKA(Dap(acetyl))EPRGDNYR(C), reference compound] (H-KKKA[Dap]EPRGDNYRC-OH; linker 5-14 via X1) | < 0.05 | D (The residual rate of the cyclic peptide is less than 30%.) | a practically sufficient molecule stability could be obtained
N=C(N)NCCC[C@@H]1NC(=O)[C@H](Cc2ccc(O)cc2)NC(=O)[C@H](CC(N)=O)NC(=O)[C@H](CC(=O)O)NC(=O)CNC(=O)[C@H](CCCNC(=N)N)NC(=O)[C@@H]2CCCN2C(=O)[C@H](CCC(=O)O)NC(=O)[C@@H](NC(=O)[C@H](CCCCN)NC(=O)[C@H](CCCCN)NC(=O)[C@@H](N)CCCCN)CNC(=O)CSC[C@@H](C(=O)O)NC1=O [Cyclic peptide 167, KKK(Dap(acetyl))EPRGDNYR(C), reference compound] (H-KKK[Dap]EPRGDNYRC-OH; linker 4-13 via X1) | 0.05 to 0.1 | D (The residual rate of the cyclic peptide is less than 30%.) | a practically sufficient molecule stability could be obtained

The next lines start with results.

Kd [1] [µM] | Compound | Stability (molecule stability, residual rate of the cyclic peptide rank) [2] | molecule stability (in words) [2]
< 0.05 | C[C@H](NC(=O)[C@H](CCCCN)NC(=O)[C@H](CCCCN)NC(=O)[C@@H](N)CCCCN)C(=O)N[C@H]1CCSCC(=O)NCC[C@@H](C(=O)O)NC(=O)[C@H](C)NC(=O)[C@H](Cc2ccccc2)NC(=O)[C@H]([C@@H](C)O)NC(=O)[C@H](CC(=O)O)NC(=O)CNC(=O)[C@H](CCCNC(=N)N)NC(=O)[C@@H]2CCCN2C(=O)[C@H]([C@@H](C)O)NC1=O [Cyclic peptide 158, KKKA-(Hcy)-TPRGDTFA(Dab(acetyl))] (H-KKKA[hCys]TPRGDTFA[Dab]-OH; linker 5-14 via X2) | A (The residual rate of the cyclic peptide is 70% or more.) | 
< 0.05 | C[C@H](NC(=O)[C@@H]1CCNC(=O)CSCC[C@H](NC(=O)[C@H](CCCCN)NC(=O)[C@H](CCCCN)NC(=O)[C@@H](N)CCCCN)C(=O)N[C@@H]([C@@H](C)O)C(=O)N2CCC[C@H]2C(=O)N[C@@H](CCCNC(=N)N)C(=O)NCC(=O)N[C@@H](CC(=O)O)C(=O)N[C@@H]([C@@H](C)O)C(=O)N[C@@H](Cc2ccccc2)C(=O)N[C@@H](C)C(=O)N1)C(=O)O [Cyclic peptide 159, KKK-(Hcy)-TPRGDTFA(Dab(acetyl))A] (H-KKK[hCys]TPRGDTFA[Dab]A-OH; linker 4-13 via X2) | A (The residual rate of the cyclic peptide is 70% or more.) | 
< 0.05 | C[C@H](NC(=O)[C@@H]1CCNC(=O)CSCC[C@H](NC(=O)[C@H](C)NC(=O)[C@H](CCCCN)NC(=O)[C@H](CCCCN)NC(=O)[C@@H](N)CCCCN)C(=O)N[C@@H]([C@@H](C)O)C(=O)N2CCC[C@H]2C(=O)N[C@@H](CCCNC(=N)N)C(=O)NCC(=O)N[C@@H](CC(=O)O)C(=O)N[C@@H]([C@@H](C)O)C(=O)N[C@@H](Cc2ccccc2)C(=O)N[C@@H](C)C(=O)N1)C(=O)O [Cyclic peptide 160, KKKA-(Hcy)-TPRGDTFA(Dab(acetyl))A] (H-KKKA[hCys]TPRGDTFA[Dab]A-OH; linker 5-14 via X2) | A (The residual rate of the cyclic peptide is 70% or more.) | 
< 0.05 | CC[C@H](C)[C@@H]1NC(=O)[C@@H](NC(=O)[C@H](C)NC(=O)[C@H](CCCCN)NC(=O)[C@H](CCCCN)NC(=O)[C@@H](N)CCCCN)CCSCC(=O)NCC[C@@H](C(=O)O)NC(=O)[C@H](C)NC(=O)[C@H](Cc2ccccc2)NC(=O)[C@H](CO)NC(=O)[C@H](CC(=O)O)NC(=O)CNC(=O)[C@H](CCCNC(=N)N)NC(=O)[C@@H]2CCCN2C1=O [Cyclic peptide 162, KKKA-(Hcy)-IPRGDSFA(Dab(acetyl))] (H-KKKA[hCys]IPRGDSFA[Dab]-OH; linker 5-14 via X2) | A (The residual rate of the cyclic peptide is 70% or more.) | 
